Measurements: US20230114241A1, “METHODS OF TREATING EPILEPSY USING THE SAME” (Trevena, Inc., priority 2019, published 2023)

These molecules were tested against human sphingosine-1-phosphate receptor 1 (S1P1) (Homo sapiens, UniProt P21453) (assay: Inhibition of cAMP production (HTRF cAMP HiRange), S1P1 CHO-K1 cells). Details: inhibition of cAMP production; potency; read-out: hS1P1 CAMP pEC50 (converted).
Assay type: cell-based
Method: Stable clonal Chinese hamster ovary K1 (CHO-K1) cells co-expressing EA-β-arrestin2 and the human sphingosine-1-phosphate receptor 1 (NM_001400, S1P1) with a C-terminal Prolink™ tag were purchased from DiscoverX corporation (Cat #: 93-0207C2).
Cell lines were cultured in AssayComplete™ Media 6 (DiscoverX Corporation, Cat #: 920018GF2) at 37° C. and 5% CO2 in a humidified CO2 and temperature-controlled incubator. To begin assay plating, cells were washed with Dulbecco's phosphate buffered saline (CellGro, Cat #: 21-031-CV) and lifted from the culturing flask by incubation (37° C., 5 min) with CellStripper (Cellgro, Cat #: 25-056-CI). […] Plated cells were incubated overnight at 37° C. and 5% CO2 in a humidified CO2 and temperature-controlled incubator.
Agonist-promoted G-protein responses were determined by measuring changes in intracellular cAMP using the HTRF® cAMP HiRange kit (CisBio, Cat #: 62AM6PEJ) based on time-resolved fluorescence resonance energy transfer (TR-FRET) technology. […] Following a 30-minute incubation at 37° C. and 5% CO2 in a humidified CO2 and temperature-controlled incubator, the components of the cAMP HiRange kit were added as per the manufacturer's instructions. After an hour incubation at room temperature, plates were analyzed by a BMG PheraStar microplate reader.
These values are normalized to fingolimod, a known agonist of the sphingosine-1-phosphate 1 receptor.

Chain of human sphingosine-1-phosphate receptor 1 (S1P1) (P21453 whole entry): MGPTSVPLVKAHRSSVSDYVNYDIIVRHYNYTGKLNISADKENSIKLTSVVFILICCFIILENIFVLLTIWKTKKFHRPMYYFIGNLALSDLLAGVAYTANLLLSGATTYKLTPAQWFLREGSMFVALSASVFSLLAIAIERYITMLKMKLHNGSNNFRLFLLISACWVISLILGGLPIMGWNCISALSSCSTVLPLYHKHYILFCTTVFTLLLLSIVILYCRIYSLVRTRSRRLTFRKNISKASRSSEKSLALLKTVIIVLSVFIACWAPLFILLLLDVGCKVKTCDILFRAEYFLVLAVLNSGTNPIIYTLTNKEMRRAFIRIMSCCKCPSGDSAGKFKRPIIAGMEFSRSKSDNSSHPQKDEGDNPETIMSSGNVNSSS

SMILES | EC50 [nM]
FC(F)(F)c1cc(-c2noc(-c3ccc4c(c3)nnn4C3CCCC3)n2)ccc1OCc1cccnc1 [Compound 4, 1-cyclopentyl-5-{3-[4-(pyridin-3-ylmethoxy)-3-(trifluoromethyl)phenyl]-1,2,4-oxadiazol-5-yl}-1H-1,2,3-benzotriazole] | > 316
Cc1cnc(-c2noc(-c3ccc4c(c3)nnn4C3CCOCC3)n2)cn1 [Compound 6, 5-[3-(5-methylpyrazin-2-yl)-1,2,4-oxadiazol-5-yl]-1-(oxan-4-yl)-1H-1,2,3-benzotriazole] | > 316
CCC1(CC)CC(=O)c2cc(-c3nc(-c4ccncc4)no3)ccc2O1 [Compound 27, 2,2-diethyl-6-[3-(pyridin-4-yl)-1,2,4-oxadiazol-5-yl]-3,4-dihydro-2H-1-benzopyran-4-one] | > 316
CCC1(CC)CC(=O)c2cc(-c3nnc(-c4cccnc4)o3)ccc2O1 [Compound 28, 2,2-diethyl-6-(5-(pyridin-3-yl)-1,3,4-oxadiazol-2-yl)chroman-4-one] | > 316
O=C1CC2(CCC(F)(F)CC2)Oc2ccc(-c3nc(-c4cccnc4)no3)cc21 [Compound 36, 4′,4′-difluoro-6-[3-(pyridin-3-yl)-1,2,4-oxadiazol-5-yl]-3,4-dihydrospiro[1-benzo-pyran-2,1′-cyclohexane]-4-one] | > 316
CCC1(CC)CC(=O)c2cc(-c3nc(-c4ccnc(OC)c4)no3)ccc2O1 [Compound 38, 2,2-diethyl-6-(3-(2-methoxypyridin-4-yl)-1,2,4-oxadiazol-5-yl)chroman-4-one] | > 316
O=C1CC2(CCCCC2)Oc2ccc(-c3nc(-c4cccnc4)no3)cc21 [Compound 41, 6-[3-(pyridin-3-yl)-1,2,4-oxadiazol-5-yl]-3,4-dihydrospiro[1-benzopyran-2,1′-cyclohexane]-4-one] | > 316
CC1(C)CCC2(CC1)CC(=O)c1cc(-c3nc(-c4cccnc4)no3)ccc1O2 [Compound 58, 4′,4′-dimethyl-6-[3-(pyridin-3-yl)-1,2,4-oxadiazol-5-yl]-3,4-dihydrospiro[1-benzopyran-2,1′-cyclohexane]-4-one] | > 316
C=CCNc1ccc(-c2nc(-c3ccc4c(c3)CCC(=O)N4)no2)cc1C#N [Compound 61, 2-(allylamino)-5-(3-(2-oxo-1,2,3,4-tetrahydroquinolin-6-yl)-1,2,4-oxadiazol-5-yl)benzonitrile] | < 316
CCC1(CC)CC(=O)c2cc(-c3nc(-c4ccc(OC)cc4)no3)ccc2O1 [Compound 65, 2,2-diethyl-6-(3-(4-methoxyphenyl)-1,2,4-oxadiazol-5-yl)chroman-4-one] | > 316
CCC1(CC)CC(=O)c2cc(-c3nc(-c4ccccc4C)no3)ccc2O1 [Compound 66, 2,2-diethyl-6-(3-(o-tolyl)-1,2,4-oxadiazol-5-yl)chroman-4-one] | < 316
CCC1(CC)CC(=O)c2cc(-c3nc(-c4ccc(Cl)cc4)no3)ccc2O1 [Compound 68, 6-[3-(4-chlorophenyl)-1,2,4-oxadiazol-5-yl]-2,2-diethyl-chroman-4-one] | > 316
CCC1(CC)CC(=O)c2cc(-c3nc(-c4cccc(OC)c4)no3)ccc2O1 [Compound 71, 2,2-diethyl-6-(3-(3-methoxyphenyl)-1,2,4-oxadiazol-5-yl)chroman-4-one] | > 316
CCC1(CC)CC(=O)c2cc(-c3nc(-c4ccc(O)cc4)no3)ccc2O1 [Compound 72, 2,2-diethyl-6-[3-(4-hydroxyphenyl)-1,2,4-oxadiazol-5-yl]chroman-4-one] | < 316
FC(F)Oc1ccc(-c2noc(-c3ccc4c(c3)nnn4C3CCCC3)n2)cc1 [Compound 80, 1-cyclopentyl-5-{3-[4-(difluoromethoxy)phenyl]-1,2,4-oxadiazol-5-yl}-1H-1,2,3-benzotriazole] | < 316
Clc1ccc(-c2noc(-c3ccc4c(c3)nnn4C3CCOCC3)n2)s1 [Compound 82, 5-[3-(5-chlorothiophen-2-yl)-1,2,4-oxadiazol-5-yl]-1-(oxan-4-yl)-1H-1,2,3-benzotriazole] | > 316

Other lines, results leading:

EC50 [nM] | SMILES
< 316 | CC(C)Oc1ccc(-c2nc(-c3ccc4c(c3)nnn4C3CCCC3)no2)cc1C(F)(F)F [Compound 14, 3-(1-cyclopentyl-1H-benzo[d][1,2,3]triazol-5-yl)-5-(4-isopropoxy-3-(trifluoromethyl)phenyl)-1,2,4-oxadiazole]
> 316 | Cc1oc(-c2ccc3c(c2)nnn3C(C)C)nc1-c1ccc(Cl)cc1 [Compound 50, 5-[4-(4-chlorophenyl)-5-methyl-1,3-oxazol-2-yl]-1-(propan-2-yl)-1H-1,2,3-benzotriazole]
> 316 | CC(C)n1nnc2cc(-c3nc(-c4ccc(OCc5ccccc5)cc4)no3)ccc21 [Compound 53, 5-{3-[4-(benzyloxy)phenyl]-1,2,4-oxadiazol-5-yl}-1-(propan-2-yl)-1H-1,2,3-benzotriazole]
> 316 | CCC1(CC)CC(=O)c2cc(-c3nnc(-c4ccc5c(c4)nnn5C(C)C)s3)ccc2O1 [Compound 67, 2,2-diethyl-6-(5-(1-isopropyl-1H-benzo[d][1,2,3]triazol-5-yl)-1,3,4-thiadiazol-2-yl)chroman-4-one]
> 316 | COc1ccc(-c2nc(-c3ccc4c(c3)nnn4C(C)C)no2)cc1 [Compound 69, 3-(1-isopropyl-benzotriazol-5-yl)-5-(4-methoxyphenyl)-1,2,4-oxadiazole]
< 316 | CC(C)n1nnc2cc(-c3nnc(-c4ccccc4O)s3)ccc21 [Compound 70, 2-{5-[1-(propan-2-yl)-1H-1,2,3-benzotriazol-5-yl]-1,3,4-thiadiazol-2-yl}phenol]
> 316 | Cn1nnc2cc(-c3noc(-c4ccccc4Br)n3)ccc21 [Compound 73, 5-(2-bromophenyl)-3-(1-methyl-1H-benzo[d][1,2,3]triazol-5-yl)-1,2,4-oxadiazole]
< 316 | Cc1ccsc1-c1noc(-c2ccc3c(c2)nnn3CC(C)C)n1 [Compound 75, 1-(2-methylpropyl)-5-[3-(3-methylthiophen-2-yl)-1,2,4-oxadiazol-5-yl]-1H-1,2,3-benzotriazole]
> 316 | CCCn1nnc2cc(-c3nc(-c4cc(C)cc(C)c4)no3)ccc21 [Compound 76, 5-[3-(3,5-dimethyl-phenyl)-1,2,4-oxadiazol-5-yl]-1-propyl-1H-1,2,3-benzotriazole]
> 316 | CC(C)n1nnc2cc(-c3noc(-c4cnccn4)n3)ccc21 [Compound 78, 3-(1-isopropyl-1H-benzo[d][1,2,3]triazol-5-yl)-5-(pyrazin-2-yl)-1,2,4-oxadiazole]
< 316 | CC(C)n1nnc2cc(-c3nc(-c4ccccc4)no3)ccc21 [Compound 79, 5-(3-phenyl-1,2,4-oxadiazol-5-yl)-1-(propan-2-yl)-1H-1,2,3-benzotriazole]
< 316 | Brc1ccccc1-c1noc(-c2ccc3c(c2)nnn3C2CC2)n1 [Compound 83, 5-[3-(2-bromophenyl)-1,2,4-oxadiazol-5-yl]-1-cyclopropyl-1H-1,2,3-benzotriazole]
> 316 | FC(F)(F)Oc1ccccc1-c1nc(-c2ccc3c(c2)nnn3C2CCCC2)no1 [Compound 84, 3-(1-cyclopentyl-1H-benzo[d][1,2,3]triazol-5-yl)-5-(2-(trifluoro-methoxy)phenyl)-1,2,4-oxadiazole]
> 316 | FC(F)(F)c1cc(-c2noc(-c3ccc4c(c3)nnn4C3CC3)n2)ccc1OCc1ccccc1 [Compound 85, 5-{3-[4-(benzyloxy)-3-(trifluoromethyl)phenyl]-1,2,4-oxadiazol-5-yl}-1-cyclopropyl-1H-1,2,3-benzotriazole]
> 316 | Cc1cc(-c2nc(-c3ccc4c(c3)nnn4C(C)C)no2)ccn1 [Compound 86, 3-(1-isopropyl-1H-benzo[d][1,2,3]triazol-5-yl)-5-(2-methyl-pyridin-4-yl)-1,2,4-oxadiazole]
> 316 | Cc1ccc(-c2noc(-c3ccc4c(c3)nnn4C3CC3)n2)cn1 [Compound 87, 1-cyclopropyl-5-[3-(6-methylpyridin-3-yl)-1,2,4-oxadiazol-5-yl]-1H-1,2,3-benzotriazole]
> 316 | CC(C)n1nnc2cc(-c3nc(Cc4ccccc4)no3)ccc21 [Compound 88, 5-(3-benzyl-1,2,4-oxadiazol-5-yl)-1-(propan-2-yl)-1H-1,2,3-benzotriazole]
> 316 | CC(C)n1nnc2cc(-c3noc(C4CCOCC4)n3)ccc21 [Compound 89, 5-[5-(oxan-4-yl)-1,2,4-oxadiazol-3-yl]-1-(propan-2-yl)-1H-1,2,3-benzotriazole]
> 316 | COc1ccc(-c2nc(-c3ccc4c(c3)nnn4C(C)C)no2)c(C)c1 [Compound 90, 3-(1-isopropyl-1H-benzo[d][1,2,3]triazol-5-yl)-5-(4-methoxy-2-methylphenyl)-1,2,4-oxadiazole]
> 316 | COc1ccc(-c2noc(-c3ccc4c(c3)nnn4C3CCCC3)n2)c2ccccc12 [Compound 91, 1-cyclopentyl-5-[3-(4-methoxynaphthalen-1-yl)-1,2,4-oxadiazol-5-yl]-1H-1,2,3-benzotriazole]
> 316 | Cc1ccncc1-c1noc(-c2ccc3c(c2)nnn3C2CC2)n1 [Compound 94, 1-cyclopropyl-5-[3-(4-methylpyridin-3-yl)-1,2,4-oxadiazol-5-yl]-1H-1,2,3-benzotriazole]
